From US12077503B2, “Substituted cyclic amides and their use as herbicides” (FMC CORPORATION, priority 2015, dated 2024)

Experiments:
Format in all cases: in vivo
[1] = test system: barnyardgrass (Echinochloa crus-galli); assay: Test G Pre-Emergence Protocol; details: Echinochloa crus-galli, pre-emergence, 312 h, evaluated after 13 days; for pest or weed control at 15.625 g/ha: 15.625 g ai/ha, read-out: Barnyard grass damage rating (100=total damage to plant; 0=no damage to plant); for pest or weed control at 62.5 g/ha: 62.5 g ai/ha, 100=total damage to plant, 0=no damage to plant, read-out: plant damage rating, Barnyardgrass; for pest or weed control at 250 g/ha: 250 g ai/ha, read-out: Barnyardgrass damage rating (100=total damage to plant; 0=no damage to plant)
Outline: (§1)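 Seeds were sown in standard soil and kept one day in a glasshouse (24/16° C day/night, 14 h light, 65% humidity), then sprayed with compound in acetone/water (50:50) containing 0.5% Tween 20 at 15.625, 62.5 or 250 g/ha. Damage was scored after 13 days (0 = none, 100 = total).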

corn (Zea mays) [2] = assay: Test G Pre-Emergence Protocol; details: Zea mays, pre-emergence, 312 h, evaluated after 13 days; for plant injury at 15.625 g/ha: 15.625 g ai/ha; for plant injury at 15.625 g/ha / plant injury at 250 g/ha: read-out: Corn damage rating (100=total damage to plant; 0=no damage to plant); for plant injury at 62.5 g/ha: 62.5 g ai/ha, 100=total damage to plant, 0=no damage to plant, read-out: plant damage rating, Corn; for plant injury at 250 g/ha: 250 g ai/ha
Outline: as §1

[3] = test system: giant foxtail (Setaria faberi); assay: Test G Pre-Emergence Protocol; details: Setaria faberi, pre-emergence, 312 h, evaluated after 13 days; for pest or weed control at 15.625 g/ha: 15.625 g ai/ha; for pest or weed control at 15.625 g/ha / pest or weed control at 250 g/ha: read-out: Foxtail, Giant damage rating (100=total damage to plant; 0=no damage to plant); for pest or weed control at 62.5 g/ha: 62.5 g ai/ha, 100=total damage to plant, 0=no damage to plant, read-out: plant damage rating, Foxtail, Giant; for pest or weed control at 250 g/ha: 250 g ai/ha
Outline: as §1

[4] = test system: ivy-leaved morning glory (Ipomoea hederacea); assay: Test G Pre-Emergence Protocol; details: Ipomoea, pre-emergence, 312 h, evaluated after 13 days; for pest or weed control at 15.625 g/ha: 15.625 g ai/ha, read-out: Morning-glory, Ivy-leaved damage rating (100=total damage to plant; 0=no damage to plant); for pest or weed control at 62.5 g/ha: 62.5 g ai/ha, 100=total damage to plant, 0=no damage to plant, read-out: plant damage rating, Morningglory, Ivy-leaved; for pest or weed control at 250 g/ha: 250 g ai/ha, read-out: Morningglory, Ivy-leaved damage rating (100=total damage to plant; 0=no damage to plant)
Outline: as §1

[5] = test system: redroot pigweed (Amaranthus retroflexus); assay: Test G Pre-Emergence Protocol; details: Amaranthus retroflexus, pre-emergence, 312 h, evaluated after 13 days; for pest or weed control at 15.625 g/ha: 15.625 g ai/ha; for pest or weed control at 15.625 g/ha / pest or weed control at 250 g/ha: read-out: Pigweed, Redroot damage rating (100=total damage to plant; 0=no damage to plant); for pest or weed control at 62.5 g/ha: 62.5 g ai/ha, 100=total damage to plant, 0=no damage to plant, read-out: plant damage rating, Pigweed, Redroot; for pest or weed control at 250 g/ha: 250 g ai/ha
Outline: as §1

[6] = test system: velvetleaf (Abutilon theophrasti); assay: Test G Pre-Emergence Protocol; details: Abutilon theophrasti, pre-emergence, 312 h, evaluated after 13 days; for pest or weed control at 15.625 g/ha: 15.625 g ai/ha; for pest or weed control at 15.625 g/ha / pest or weed control at 250 g/ha: read-out: Velvetleaf damage rating (100=total damage to plant; 0=no damage to plant); for pest or weed control at 62.5 g/ha: 62.5 g ai/ha, 100=total damage to plant, 0=no damage to plant, read-out: plant damage rating, Velvetleaf; for pest or weed control at 250 g/ha: 250 g ai/ha
Outline: as §1

[7] = test system: barnyardgrass (Echinochloa crus-galli); assay: Test G Post-Emergence Protocol; details: Echinochloa crus-galli, post-emergence, 312 h; for pest or weed control at 15.625 g/ha: 15.625 g ai/ha, evaluated after 13 days (100=total damage to plant; 0=no damage to plant), read-out: Barnyardgrass damage rating; for pest or weed control at 62.5 g/ha: 62.5 g ai/ha, read-out: Barnyardgrass damage rating (100=total damage to plant; 0=no damage to plant); for pest or weed control at 62.5 g/ha / pest or weed control at 250 g/ha: evaluated after 13 days; for pest or weed control at 250 g/ha: 250 g ai/ha, read-out: damage to plant, Barnyardgrass (100=total damage to plant; 0=no damage to plant)
Outline: (§2)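 Damage was rated 13 days after treatment from 0 (none) to 100 (plant killed). Compound was applied as a spray at 15.625, 62.5 or 250 g/ha in 50:50 acetone/water containing 0.5% Tween 20, onto 8-day-old potted plants kept in a glasshouse (24/16 °C, 14 h light, 65% humidity).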

corn (Zea mays) [8] = assay: Test G Post-Emergence Protocol; details: Zea mays, post-emergence, 312 h; for plant injury at 15.625 g/ha: 15.625 g ai/ha, evaluated after 13 days (100=total damage to plant; 0=no damage to plant), read-out: Corn damage rating; for plant injury at 62.5 g/ha: 62.5 g ai/ha, read-out: Corn damage rating (100=total damage to plant; 0=no damage to plant); for plant injury at 62.5 g/ha / plant injury at 250 g/ha: evaluated after 13 days; for plant injury at 250 g/ha: 250 g ai/ha, read-out: damage to plant, Corn (100=total damage to plant; 0=no damage to plant)
Outline: as §2

[9] = test system: giant foxtail (Setaria faberi); assay: Test G Post-Emergence Protocol; details: Setaria faberi, post-emergence, 312 h; for pest or weed control at 15.625 g/ha: 15.625 g ai/ha, evaluated after 13 days (100=total damage to plant; 0=no damage to plant), read-out: Foxtail, Giant damage rating; for pest or weed control at 62.5 g/ha: 62.5 g ai/ha, read-out: Foxtail, Giant damage rating (100=total damage to plant; 0=no damage to plant); for pest or weed control at 62.5 g/ha / pest or weed control at 250 g/ha: evaluated after 13 days; for pest or weed control at 250 g/ha: 250 g ai/ha, read-out: damage to plant, Foxtail, Giant (100=total damage to plant; 0=no damage to plant)
Outline: as §2

[10] = test system: ivy-leaved morning glory (Ipomoea hederacea); assay: Test G Post-Emergence Protocol; details: Ipomoea, post-emergence, 312 h; for pest or weed control at 15.625 g/ha: 15.625 g ai/ha, evaluated after 13 days (100=total damage to plant; 0=no damage to plant), read-out: Morningglory, Ivy-leaved damage rating; for pest or weed control at 62.5 g/ha: 62.5 g ai/ha, read-out: Morningglory, Ivy-leaved damage rating (100=total damage to plant; 0=no damage to plant); for pest or weed control at 62.5 g/ha / pest or weed control at 250 g/ha: evaluated after 13 days; for pest or weed control at 250 g/ha: 250 g ai/ha, read-out: damage to plant, Morningglory, Ivy-leaved (100=total damage to plant; 0=no damage to plant)
Outline: as §2

[11] = test system: redroot pigweed (Amaranthus retroflexus); assay: Test G Post-Emergence Protocol; details: Amaranthus retroflexus, post-emergence, 312 h; for pest or weed control at 15.625 g/ha: 15.625 g ai/ha, evaluated after 13 days (100=total damage to plant; 0=no damage to plant), read-out: Pigweed, Redroot damage rating; for pest or weed control at 62.5 g/ha: 62.5 g ai/ha, read-out: Pigweed, Redroot damage rating (100=total damage to plant; 0=no damage to plant); for pest or weed control at 62.5 g/ha / pest or weed control at 250 g/ha: evaluated after 13 days; for pest or weed control at 250 g/ha: 250 g ai/ha, read-out: damage to plant, Pigweed, Redroot (100=total damage to plant; 0=no damage to plant)
Outline: as §2

[12] = test system: velvetleaf (Abutilon theophrasti); assay: Test G Post-Emergence Protocol; details: Abutilon theophrasti, post-emergence, 312 h; for pest or weed control at 15.625 g/ha: 15.625 g ai/ha, evaluated after 13 days (100=total damage to plant; 0=no damage to plant), read-out: Velvetleaf damage rating; for pest or weed control at 62.5 g/ha: 62.5 g ai/ha, read-out: Velvetleaf damage rating (100=total damage to plant; 0=no damage to plant); for pest or weed control at 62.5 g/ha / pest or weed control at 250 g/ha: evaluated after 13 days; for pest or weed control at 250 g/ha: 250 g ai/ha, read-out: damage to plant, Velvetleaf (100=total damage to plant; 0=no damage to plant)
Outline: as §2

Structure (SMILES)	pest or weed control at 15.625 g/ha [1]	pest or weed control at 62.5 g/ha [1]	pest or weed control at 250 g/ha [1]	plant injury at 15.625 g/ha (corn (Zea mays) [2])	plant injury at 62.5 g/ha (corn (Zea mays) [2])	plant injury at 250 g/ha (corn (Zea mays) [2])	pest or weed control at 15.625 g/ha [3]	pest or weed control at 62.5 g/ha [3]	pest or weed control at 250 g/ha [3]	pest or weed control at 15.625 g/ha [4]	pest or weed control at 62.5 g/ha [4]	pest or weed control at 250 g/ha [4]	pest or weed control at 15.625 g/ha [5]	pest or weed control at 62.5 g/ha [5]	pest or weed control at 250 g/ha [5]	pest or weed control at 15.625 g/ha [6]	pest or weed control at 62.5 g/ha [6]	pest or weed control at 250 g/ha [6]	pest or weed control at 15.625 g/ha [7]	pest or weed control at 62.5 g/ha [7]	further results
Cc1ncsc1NC(=O)[C@@H]1C(=O)N(C)C[C@H]1c1ccc(C(F)(F)F)cc1 (racemic) [Compound 1635]	0%	0%	0%	0%	0%	0%	0%	0%	0%	0%	0%	0%	0%	0%	0%	0%	0%	0%	0%	0%	pest or weed control at 250 g/ha [7]: 30%; plant injury at 15.625 g/ha (corn (Zea mays) [8]): 0%; plant injury at 62.5 g/ha (corn (Zea mays) [8]): 0%; plant injury at 250 g/ha (corn (Zea mays) [8]): 0%; pest or weed control at 15.625 g/ha [9]: 0%; pest or weed control at 62.5 g/ha [9]: 10%; pest or weed control at 250 g/ha [9]: 40%; pest or weed control at 15.625 g/ha [10]: 0%; pest or weed control at 62.5 g/ha [10]: 0%; pest or weed control at 250 g/ha [10]: 0%; pest or weed control at 15.625 g/ha [11]: 0%; pest or weed control at 62.5 g/ha [11]: 0%; pest or weed control at 250 g/ha [11]: 10%; pest or weed control at 15.625 g/ha [12]: 0%; pest or weed control at 62.5 g/ha [12]: 0%; pest or weed control at 250 g/ha [12]: 0%
Cc1nc(NC(=O)[C@@H]2C(=O)N(C)C[C@H]2c2ccc(C(F)(F)F)cc2)ccc1Cl (racemic) [Compound 1642]	0%	0%	0%	0%	0%	10%	0%	0%	20%	0%	0%	0%	0%	0%	0%	0%	0%	0%	0%	0%	pest or weed control at 250 g/ha [7]: 10%; plant injury at 15.625 g/ha (corn (Zea mays) [8]): 0%; plant injury at 62.5 g/ha (corn (Zea mays) [8]): 0%; plant injury at 250 g/ha (corn (Zea mays) [8]): 0%; pest or weed control at 15.625 g/ha [9]: 0%; pest or weed control at 62.5 g/ha [9]: 30%; pest or weed control at 250 g/ha [9]: 70%; pest or weed control at 15.625 g/ha [10]: 0%; pest or weed control at 62.5 g/ha [10]: 0%; pest or weed control at 250 g/ha [10]: 0%; pest or weed control at 15.625 g/ha [11]: 0%; pest or weed control at 62.5 g/ha [11]: 0%; pest or weed control at 250 g/ha [11]: 20%; pest or weed control at 15.625 g/ha [12]: 0%; pest or weed control at 62.5 g/ha [12]: 0%; pest or weed control at 250 g/ha [12]: 0%
